Test results from patent US20100119502A1, “THERAPY REGIMENS, DOSING REGIMENS AND STABLE MEDICAMENTS FOR THE TREATMENT OF POMPE DISEASE” (AMICUS THERAPEUTICS, INC., priority 2008, published 2010).
Entries after “also recorded” stand apart in the source; their conditions may differ. Structures can show the parent of a compound that is named as a salt.

What was measured:
GAA KO mice [1] = test: Tissue glycogen reduction in GAA KO mice; type: in vivo; conditions: Myozyme co-administered with 30 mg/kg 1-DNJ-HCl
Procedure: To prevent anaphylaxis, before the third and fourth Myozyme™ injection, diphenhydramine (10 mg/kg intraperitoneally) was administered 10 min before Myozyme™ injection. […] Mice were euthanized 14 days after the last Myozyme™ administration. Glycogen levels in heart, diaphragm, soleus, and quadriceps were then measured. […] Supernatants were heat denatured (99° C. for 10 min) to remove endogenous amyloglucosidase activity. […] The reaction was stopped by inactivation at 100° C. for 10 min. […] Simultaneously, the amount of protein was determined in tissue homogenates using the Micro BCA Protein Assay (Pierce, Rockford, Ill.) following the manufacturer's instructions. The glycogen content of each sample was normalized to protein, and data were finally expressed as micrograms of glycogen per milligram of protein (μg/mg protein).

GAA KO mouse = test: GAA enzyme activity in heart and diaphragm of GAA KO mouse (rhGAA uptake); type: in vivo; conditions: rhGAA co-administered with 1-DNJ-HCl vs ERT monotherapy
Procedure: Heart and Diaphragm tissue homogenates were harvested and rhGAA activity was measured using the fluorogenic substrate (4-MUG).

GAA KO mice [2] = test: In vivo uptake of Myozyme in GAA KO mice with and without oral 1-DNJ-HCl (4-MUG tissue GAA activity)
Text: Enzymatic activity as determined using a 4-MUG fluorogenic substrate assay.

rhGAA (Myozyme™) = target: T1, rhGAA (Myozyme™) (Homo sapiens, UniProt P10253); test: rhGAA enzyme inactivation in citrate anti-coagulated whole blood at 37° C.; type: in vitro ADME; conditions: for rhGAA enzyme inactivated: whole blood 37° C., no 1-DNJ-HCl
T1 construct: purchased Genzyme Corp; host or cells: Chinese hamster ovary cell line
Procedure: Aliquots were collected at 0, 2, 4, 8 and 24 hrs and centrifuged to obtain plasma. These plasma samples were then diluted in potassium acetate buffer (pH 4.0) and assayed for GAA activity using the 4-methylumbeliferyl-α-glucose (4-MUG) fluorogenic substrate. The measured GAA activity for individual samples at each time point was normalized to the 0 hr and expressed as % of initial activity. Data from 4 independent experiments were analyzed to obtain the mean (and standard deviation) and plotted versus time to assess the loss of enzyme activity over this time course.
Aliquots were collected at 0, 3 and 6 hrs and centrifuged to obtain plasma. These plasma samples were then diluted in potassium acetate buffer (pH 4.0) and assayed for GAA activity using the 4-methylumbeliferyl-a-glucose (4-MUG) fluorogenic substrate. The measured GAA activity for individual samples at each time point was normalized to the 0 hr and expressed as % of initial activity.
Based on human plasma PK data, these concentrations are readily obtainable in the clinic.

[3] = target: T2, recombinant human GAA (Myozyme®, Genzyme Corp.) (Homo sapiens, UniProt P10253); test: SYPRO Orange thermal stability assay of rhGAA; type: binding
T2 construct: purchased Genzyme Corp; host or cells: Chinese hamster ovary cell line
Text: The thermal stability assay utilizes heat to induce protein denaturation, which is monitored using a SYPRO Orange dye that fluoresces upon binding to hydrophobic amino acids (which are not exposed in a folded protein).
FIG. 2B depicts a parallel SYPRO Orange thermal stability experiment to determine if the loss of enzyme activity shown in FIG. 2A, particularly the loss of Myozyme activity at ER pH (7.4), correlates with protein unfolding and denaturation. […]
Denaturation is monitored using a SYPRO Orange dye that fluoresces upon binding to hydrophobic amino acids (which are not exposed in a folded protein).
The thermal stability was performed at pH 7.4 for two formulations, which corresponds to the pH of the ER.
In order to determine if loss of initial enzyme activity is correlated to failure to maintain a proper conformation, a SYPRO Orange thermal stability experiment was performed on the samples above as generally described in Example 1. […] Based on this experiment, the % of GAA folded was estimated and plotted in FIG. 2B. […]

[4] = stored at 2 to 8° C.; cited from earlier work

OC[C@H]1NC[C@H](O)[C@@H](O)[C@@H]1O [1-DNJ-HCl, 1-deoxynorjirimycin hydrochloride]
tissue glycogen reduction compared to Myozyme alone (GAA KO mice [1]): significantly greater tissue glycogen reduction
rhGAA uptake in the heart and diaphragm (GAA activity) (GAA KO mouse): increased
Myozyme tissue uptake (as a measure of GAA activity) with coadministered 1-DNJ-HCl (GAA KO mice [2]; Myozyme 10 mg/kg IV weekly up to 3 weeks plus 10, 100, 1000 mg/kg oral 1-DNJ-HCl): dose-dependent increase in Myozyme uptake
stabilizing rhGAA and preventing enzyme inactivation in whole blood (rhGAA (Myozyme™); high 1-DNJ-HCl concentrations (50 and 100 μM)): best for stabilizing rhGAA and preventing enzyme inactivation
rhGAA activity in whole blood (rhGAA (Myozyme™); rhGAA with 50 μM 1-DNJ-HCl, 37° C., up to 24 hrs): remained completely active
GAA folding / denaturation (% of GAA folded) ([3]; 37° C. over 24 hours, Myozyme 0.9 μM, pH 7.4, with or without 100 μM 1-DNJ-HCl): can prevent GAA denaturation and loss of enzyme activity
stability of rhGAA (heat required to denature) ([3]; pH 7.4, Myozyme plus 100 μM 1-DNJ-HCl vs Myozyme alone, hydrochloride): required significantly more heat to denature; also recorded: significantly increased

Myozyme: alglucosidase alfa, human acid α-glucosidase produced by recombinant DNA technology in a Chinese hamster ovary cell line (Genzyme)
Myozyme tissue uptake (as a measure of GAA activity) (GAA KO mice [2]; Myozyme 10 mg/kg IV weekly, 7 days post injection): declined at 7 days post injection
rhGAA enzyme inactivated (rhGAA (Myozyme™); by 4 hrs): approximately 40%
rhGAA enzyme inactivated (rhGAA (Myozyme™); by 8 hrs): ~70%
rhGAA enzyme inactivated (rhGAA (Myozyme™); by 24 hrs): ~100%
time the product is stable on storage [4]: up to 24 hours
stability of rhGAA by pH ([3]; Myozyme alone, pH 5.2 vs pH 7.4): much more stable at lysosomal pH (5.2) than at ER pH (7.4)
